Where a name gives a salt, the structure may show the parent alone.
Experiments:
[1] = system: CGS 21680-induced catalepsy in mice; assay: Activity on CGS 21680-induced Catalepsy; format: in vivo, mouse (male ddY); conditions: 10 mg/kg oral; for Total score (catalepsy): 10 animals, maximum 50 points, control 48; for Number of Animals showing remission: catalepsy score 4 points or less in 10 cases; for inhibition in vivo at 10 mg/kg: Mus musculus, CGS 21680-induced catalepsy, read-out: Remission ratio (%)
Experimental: Activity on CGS 21680-induced Catalepsy
Parkinson's disease is motor deficit based on the degeneration and cell death of the nigrostriatal dopaminergic neuron. […] [Journal of Neuroscience, 16: 605 (1996)]. Accordingly, it is considered that adenosine A2A receptor agonists positively regulate the output of the striopallidal GABAergic neurons and, as a result, catalepsy is induced by the administration of CGS 21680.
This test was carried out using 10 animals per group of male ddY mice of 5 week age (22 to 25 g in body weight, Japan SLC). CGS 21680 (manufactured by RBI) was dissolved in a physiological saline (manufactured by Otsuka Pharmaceutical), and 10 μg/20 μl of the solution was injected into mouse intracerebro-ventricle. Test compounds were used by suspending them in distilled water containing 0.3% of polyoxyethylene(20)sorbitan monooleate (hereinafter referred to as "Tween 80") (manufactured by Otsuka Pharmaceutical). […] One hour after the administration of the test compound, only forelimbs or only hindlimbs of each animal were laid on a vertically arranged stand made of acryl, having a size of 4.5 cm in height and 1.0 cm in width, to measure catalepsy symptoms. All of the compounds were administered orally in a dose of 10 mg/kg.
The effect was judged by total catalepsy scores of 10 animals in one group (the maximum is 50 points). When the total score was 40 points or less, the activity of drugs was judged positive. The number of animals showing remission of catalepsy was expressed by the number of cases in which the catalepsy score was 4 points or less in 10 cases. The catalepsy remission ratio was expressed as the percentage of the total score in the test compound-administered group to the total score in the control group.

adenosine A2A receptor = molecular target: T1, adenosine A2A receptor (Rattus norvegicus, UniProt P30543); assay: Adenosine receptor binding activity (adenosine A2A receptor binding test), 3H-CGS 21680 binding; conditions: 2 h, read-out: A2A receptor inhibition ratio (%); for inhibition at 0.1 µM: 10^-7 M
T1 construct: from tissue; host or cells: rat corpus striatum, washed membrane suspension
T1 sequence (P30543 whole entry): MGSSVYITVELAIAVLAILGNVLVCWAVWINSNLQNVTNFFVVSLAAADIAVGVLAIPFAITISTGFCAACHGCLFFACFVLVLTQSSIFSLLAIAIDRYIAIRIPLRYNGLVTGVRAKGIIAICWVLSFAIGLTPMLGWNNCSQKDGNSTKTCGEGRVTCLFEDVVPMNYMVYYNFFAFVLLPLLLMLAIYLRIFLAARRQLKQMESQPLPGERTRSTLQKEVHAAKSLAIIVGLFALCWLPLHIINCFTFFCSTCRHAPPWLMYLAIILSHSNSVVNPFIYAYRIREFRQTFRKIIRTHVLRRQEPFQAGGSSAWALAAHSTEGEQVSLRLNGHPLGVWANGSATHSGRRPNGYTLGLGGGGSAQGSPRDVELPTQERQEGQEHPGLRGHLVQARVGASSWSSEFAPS
Experimental: Adenosine receptor binding activity (adenosine A2A receptor binding test) This test was carried out by slightly modifying the method of Bruns et al. [Molecular Pharmacology, 29: 331 (1986)].
Corpus striatum of a rat was suspended in an ice-cooled 50 mM tris(hydroxymethyl)aminomethane hydrochloride (hereinafter referred to as "Tris-HCl") buffer (pH 7.7) using Polytron Homogenizer (manufactured by Kinematica Co.). The suspension was centrifuged (50,000×g, 10 minutes), and the obtained precipitate was re-suspended in the same amount of 50 mM Tris-HCl buffer. The suspension was centrifuged under the same conditions, and the final precipitate was suspended in 50 mM Tris-HCl [containing 10 mM magnesium chloride and 0.02 unit/mg tissue of adenosine deaminase (manufactured by Sigma Co.)] to give a tissue concentration of 5 mg (wet weight)/ml.
To 1 ml of the tissue suspension thus prepared were added 50 μl of tritium-labeled CGS 21680 {^3 H-2-[p-(2-carboxyethyl)phenethylamino]-5'-N-ethylcarboxamido)adenosine: 40 Ci/mmol; manufactured by New England Nuclear Co.[The Journal of Pharmacology and Experimental Therapeutics, 251: 888 (1989)]} (final concentration:4.0 nM) and 50 μl of a test compound. The resulting mixture was allowed to stand for 120 minutes at 25° C., and then rapidly filtered by suction through a glass fiber filter (GF/C, manufactured by Whatman Co.) The filter was immediately washed three times with […] of an ice-cooled 50 mM Tris-HCl buffer, and transferred to a vial, a scintillator (EX-H , manufactured by Wako Pure Chemical Industries, Ltd.) was added thereto, and the radioactivity on the filter was determined with a liquid scintillation counter (manufactured by Packard Instrument Co.) […]
The inhibition ratio of the test compound against the A2A receptor binding (^3 H-CGS 21680 binding) was calculated by the following equation:
Inhibition ratio (%)={1-(Amount of the binding in the presence of the test compound-Amount of the nonspecific binding)/(Amount of the total binding-Amount of the nonspecific binding)}×100
(Note) Amount of the total binding means the amount of radioactivity of ^3 H-CGS 21680 bound in the absence of the test compound. Amount of the nonspecific binding means the amount of radioactivity of ^3 H-CGS 21680 bound in the presence of 100 μM cyclopentyladenosine (CPA, manufactured by Sigma Co.) Amount of the binding in the presence of the test compound means the amount of radioactivity of ^3 H-CGS 21680 bound in the presence of the test compound at various levels of concentrations.

Row | SMILES | inhibition at 0.1 µM (adenosine A2A receptor) | inhibition at 0.01 µM (adenosine A2A receptor; 10^-8 M) | Total score (catalepsy) [1] | Number of Animals showing remission [1] | inhibition in vivo at 10 mg/kg [1]
1 | N#Cc1ccccc1CSc1cc2nc(-c3ccco3)nn2c(N)n1 [Compound 188, 5-Amino-7-(2-cyanobenzylthio)-2-(2-furyl)[1,2,4]triazolo[1,5-c]pyrimidine] | 91% | – | 15 | 2 | 70%
2 | C[C@@H]1CN(c2cc3nc(-c4ccco4)nn3c(N)n2)C[C@H](C)N1Cc1ccccc1 [Compound 116, 5-Amino-7-(4-benzyl-cis-3,5-dimethylpiperazinyl)-2-(2-furyl)[1,2,4]triazolo[1,5-c]pyrimidine] | 38% | – | 5 | 10 | 90%
3 | CCNC(=O)c1cnc(N)n2nc(-c3ccco3)nc12 [Compound 169, 5-Amino-8-ethylcarbamoyl-2-(2-furyl)[1,2,4]triazolo[1,5-c]pyrimidine] | 96% | – | 9 | 10 | 82%
4 | CC(C)C(=O)c1cnc(N)n2nc(-c3ccco3)nc12 [Compound 153, 5-Amino-8-(1-oxo-2-methylpropyl)-2-(2-furyl)[1,2,4]triazolo[1,5-c]pyrimidine] | 48% | – | 10 | 9 | 80%
5 | C[C@@H]1CN(c2cc3nc(-c4ccco4)nn3c(N)n2)C[C@H](C)N1CCO [Compound 120, 5-Amino-7-(cis-3,5-dimethyl-4-(2-hydroxyethyl)piperazinyl)-2-(2-furyl)[1,2,4]triazolo[1,5-c]pyrimidine] | 29% | – | 3 | 10 | 94%
6 | CCC(=O)c1cnc(N)n2nc(-c3ccco3)nc12 [Compound 158, 5-Amino-2-(2-furyl)-8-propionyl[1,2,4]triazolo[1,5-c]pyrimidine] | 92% | – | 23 | 8 | 52%
7 | C[C@@H]1CN(c2cc3nc(-c4ccco4)nn3c(N)n2)C[C@H](C)N1C [Compound 115, 5-Amino-7-(cis-3,5-dimethyl-4-methylpiperazinyl)-2-(2-furyl)[1,2,4]triazolo[1,5-c]pyrimidine hydrochloride] | 22% | – | 5 | 10 | 88%
8 | Nc1nc(Oc2ccc(Cl)cc2)cc2nc(-c3ccco3)nn12 [Compound 35, 5-Amino-7-(4-chlorophenoxy)-2-(2-furyl)[1,2,4]triazolo[1,5-c]pyrimidine] | 82% | 43% | 15 | 8 | 66%

Further lines, with some results ahead:

Row | inhibition at 0.1 µM (adenosine A2A receptor) | inhibition at 0.01 µM (adenosine A2A receptor; 10^-8 M) | SMILES | Total score (catalepsy) [1] | Number of Animals showing remission [1] | inhibition in vivo at 10 mg/kg [1]
9 | 41% | – | CC(O)CN1CCN(c2cc3nc(-c4ccco4)nn3c(N)n2)CC1 (racemic) [Compound 105, (±)-5-Amino-2-(2-furyl)-7-(4-(2-hydroxypropyl)piperazinyl)[1,2,4]triazolo[1,5-c]pyrimidine] | 4 | 10 | 92%
10 | 42% | – | CCCN1CCN(c2cc3nc(-c4ccco4)nn3c(N)n2)CC1 [Compound 123, 5-Amino-2-(2-furyl)-7-(4-propylpiperazinyl)[1,2,4]triazolo[1,5-c]pyrimidine] | 1 | 10 | 96%
11 | 46% | – | CC(C)OCCCN1CCN(c2cc3nc(-c4ccco4)nn3c(N)n2)CC1 [Compound 101, 5-Amino-2-(2-furyl)-7-(4-(3-isopropoxypropyl)piperazinyl)[1,2,4]triazolo[1,5-c]pyrimidine] | 8 | 10 | 82%
12 | 77% | – | Nc1nc(N2CCN(CCCc3cccnc3)CC2)cc2nc(-c3ccco3)nn12 [Compound 87, 5-Amino-2-(2-furyl)-7-(4-(3-(3-pyridyl)propyl)piperazinyl)[1,2,4]triazolo[1,5-c]pyrimidine hydrochloride] | 14 | 9 | 68%
13 | 83% | – | COc1ccc(CCCN2CCN(c3cc4nc(-c5ccco5)nn4c(N)n3)CC2)cc1OC [Compound 86, 5-Amino-7-(4-(3-(3,4-dimethoxyphenyl)propyl)piperazinyl)-2-(2-furyl)[1,2,4]triazolo[1,5-c]pyrimidine] | 13 | 9 | 72%
14 | 93% | – | Nc1nc(N2CCN(Cc3c(Cl)cccc3Cl)CC2)cc2nc(-c3ccco3)nn12 [Compound 80, 5-Amino-7-(4-(2,6-dichlorobenzyl)piperazinyl)-2-(2-furyl)[1,2,4]triazolo[1,5-c]pyrimidine hydrochloride] | 3 | 10 | 92%
15 | 59% | – | Nc1nc(N2CCN(CCCF)CC2)cc2nc(-c3ccco3)nn12 [Compound 127, 5-Amino-7-(4-(3-fluoropropyl)piperazinyl)-2-(2-furyl)[1,2,4]triazolo[1,5-c]pyrimidine] | 3 | 10 | 96%
16 | 63% | – | Nc1nc(N2CCN(Cc3ccccn3)CC2)cc2nc(-c3ccco3)nn12 [Compound 84, 5-Amino-2-(2-furyl)-7-(4-(2-picolyl)piperazinyl)[1,2,4]triazolo[1,5-c]pyrimidine] | 9 | 9 | 78%
17 | 54% | – | CCOCCCN1CCN(c2cc3nc(-c4ccco4)nn3c(N)n2)CC1 [Compound 100, 5-Amino-7-(4-(3-ethoxypropyl)piperazinyl)-2-(2-furyl)[1,2,4]triazolo[1,5-c]pyrimidine] | 4 | 10 | 90%
18 | 79% | – | Nc1nc(N2CCN(CCOCc3ccccc3)CC2)cc2nc(-c3ccco3)nn12 [Compound 97, 5-Amino-7-(4-(2-benzyloxyethyl)piperazinyl)-2-(2-furyl)[1,2,4]triazolo[1,5-c]pyrimidine hydrochloride] | 4 | 10 | 90%
19 | 59% | – | C=CCN1CCN(c2cc3nc(-c4ccco4)nn3c(N)n2)CC1 [Compound 124, 5-Amino-7-(4-allylpiperazinyl)-2-(2-furyl)[1,2,4]triazolo[1,5-c]pyrimidine] | 12 | 9 | 76%

Source: patent US6222035A, “[1,2,4] triazolo [1,5-C] pyrimidine derivatives” (Kyowa Hakko Kogyo Co., Ltd., priority 1997, dated 2001)
